Results reported in patent publication EP0183129A1, “Quinolonecarboxylic acid derivatives” (KYORIN PHARMACEUTICAL CO., LTD., priority 1984, dated 1986).
Counter-ions that a name gives are not always drawn. Like-named read-outs stand apart in the source and are kept apart here.

Legend:
[1] = test system: Bacillus subtilis PCI 219; assay: In vitro antibacterial activity, MIC (standard strain); format: cell-based; conditions: PCI219; Bacillus subtilis PCI 219; 10^6 cells/ml; standard strain; read-out: MIC
[2] = test system: Staphylococcus aureus 209 P; assay: as above; format: cell-based; conditions: Staphylococcus aureus 209 P; 10^6 cells/ml; standard strain; read-out: MIC
S. epidermidis IID 866 = assay: as above; format: cell-based; conditions: Staphylococcus epidermidis, IID866, S. epidermidis IID 866; 10^6 cells/ml; standard strain; read-out: MIC
[3] = test system: Escherichia coli NIHJ JC-2; assay: as above; format: cell-based; conditions: Escherichia coli, NIHJJC2, Escherichia coli NIHJ JC-2; 10^6 cells/ml; standard strain; read-out: MIC
E. coli ML 4707 = assay: as above; format: cell-based; conditions: Escherichia coli, ML4707; E. coli ML 4707; 10^6 cells/ml; standard strain; read-out: MIC
[4] = test system: Proteus vulgaris IFO 3167; assay: as above; format: cell-based; conditions: IFO3167; Proteus vulgaris IFO 3167; 10^6 cells/ml; standard strain; read-out: MIC
P. mirabilis IID 994 = assay: as above; format: cell-based; conditions: Proteus mirabilis, IID994; P. mirabilis IID 994; 10^6 cells/ml; standard strain; read-out: MIC
[5] = test system: Citrobacter freundii IID 976; assay: as above; format: cell-based; conditions: IID976; Citrobacter freundii IID 976; 10^6 cells/ml; standard strain; read-out: MIC
[6] = test system: Klebsiella pneumoniae KY(GN)6445; assay: as above; format: cell-based; conditions: Klebsiella pneumoniae KY(GN)6445; 10^6 cells/ml; standard strain; read-out: MIC
K. pneumoniae 1-220S = assay: as above; format: cell-based; conditions: Klebsiella pneumoniae, 1220S; K. pneumoniae 1-220S; 10^6 cells/ml; standard strain; read-out: MIC
[7] = test system: Serratia marcescens IID 618; assay: as above; format: cell-based; conditions: Serratia marcescens, IID618, Serratia marcescens IID 618; 10^6 cells/ml; standard strain; read-out: MIC
[8] = test system: Pseudomonas aeruginosa V-1; assay: as above; format: cell-based; conditions: V1
P. aeruginosa IID 1210 = assay: as above; format: cell-based; conditions: Pseudomonas aeruginosa, IID1210; P. aeruginosa IID 1210; 10^6 cells/ml; standard strain; read-out: MIC
[9] = test system: Alcaligenes faecalis 0104002; assay: as above; format: cell-based
B. fragilis 25285 = assay: as above; format: cell-based, Bacteroides fragilis; conditions: Bacteroides fragilis, 25285, B. fragilis 25285; 10^6 cells/ml; standard strain; read-out: MIC
[10] = test system: Fusobacterium varium KYA 8501; assay: as above; format: cell-based; conditions: Fusobacterium varium, KYA8501, Fusobacterium varium KYA 8501; 10^6 cells/ml; standard strain; read-out: MIC
C. ramosum = assay: as above; format: cell-based; conditions: Thomasclavelia ramosa; C. ramosum; 10^6 cells/ml; standard strain; read-out: MIC
S. pyogenes 3130 = assay: In vitro antibacterial activity, MIC (clinical isolates); format: cell-based; conditions: Streptococcus pyogenes, read-out: MIC
S. pyogenes 3102 = assay: as above; format: cell-based; conditions: Streptococcus pyogenes; S. pyogenes 3102; 10^6 cells/ml; clinical isolate; read-out: MIC
S. pyogenes 4372 = assay: as above; format: cell-based; conditions: Streptococcus pyogenes; S. pyogenes 4372; 10^6 cells/ml; clinical isolate; read-out: MIC
S. agalactiae 4394 = assay: as above; format: cell-based; conditions: Streptococcus agalactiae; S. agalactiae 4394; 10^6 cells/ml; clinical isolate; read-out: MIC
S. agalactiae 4049 = assay: as above; format: cell-based; conditions: Streptococcus agalactiae; S. agalactiae 4049; 10^6 cells/ml; clinical isolate; read-out: MIC
S. agalactiae 4368 = assay: as above; format: cell-based; conditions: Streptococcus agalactiae; S. agalactiae 4368; 10^6 cells/ml; clinical isolate; read-out: MIC
S. faecalis 401 = assay: as above; format: cell-based; conditions: Enterococcus faecalis; S. faecalis 401; 10^6 cells/ml; clinical isolate; read-out: MIC
[11] = Pseudomonas aeruginosa V-1, 10^6 cells/ml, standard strain, read-out: MIC
[12] = Alcaligenes faecalis, 0104002, Alcaligenes faecalis 0104002, 10^6 cells/ml, standard strain, read-out: MIC

| Compound | MIC [1] [µg/mL] | MIC [2] [µg/mL] | MIC (S. epidermidis IID 866) [µg/mL] | MIC [3] [µg/mL] | MIC (E. coli ML 4707) [µg/mL] | MIC [4] [µg/mL] | MIC (P. mirabilis IID 994) [µg/mL] | MIC [5] [µg/mL] | MIC [6] [µg/mL] | MIC (K. pneumoniae 1-220S) [µg/mL] | MIC [7] [µg/mL] | MIC (P. aeruginosa IID 1210) [µg/mL] | MIC (B. fragilis 25285) [µg/mL] | MIC [10] [µg/mL] | MIC (C. ramosum) [µg/mL] | MIC (S. pyogenes 3130) [µg/mL] | MIC (S. pyogenes 3102) [µg/mL] | MIC (S. pyogenes 4372) [µg/mL] | MIC (S. agalactiae 4394) [µg/mL] | MIC (S. agalactiae 4049) [µg/mL] | also measured |
| --- | --- | --- | --- | --- | --- | --- | --- | --- | --- | --- | --- | --- | --- | --- | --- | --- | --- | --- | --- | --- | --- |
| CCNCC1CCN(c2cc3c(cc2F)c(=O)c(C(=O)O)cn3C2CC2)C1.Cl (stereo not drawn) [Example 7, 1-Cyclopropyl-7-(3-ethylaminomethyl-1-pyrrolidinyl)-6-fluoro-1,4-dihydro-4-oxo-3-quinolinecarboxylic acid hydrochloride] | 0.025 | 0.1 | 0.05 | 0.05 | 0.05 | 0.05 | 0.2 | 0.1 | 0.1 | 0.2 | 0.39 | 3.13 | 25 | 12.5 | 6.25 | 0.2 | 0.2 | 0.2 | 0.39 | 0.78 | MIC [8, 11]: 1.56 µg/mL; MIC [9, 12]: 1.56 µg/mL; MIC (S. agalactiae 4368): 0.39 µg/mL; MIC (S. faecalis 401): 0.78 µg/mL |
| CNCC1CCN(c2cc3c(cc2F)c(=O)c(C(=O)O)cn3C2CC2)C1 (stereo not drawn) [Example 9, 1-Cyclopropyl-6-fluoro-1,4-dihydro-7-(3-methylaminomethyl-l-pyrrolidinyl)-4-oxo-3-quinolinecarboxylic acid hydrochloride] | 0.05 | 0.2 | 0.1 | 0.05 | 0.1 | 0.1 | 0.39 | 0.2 | 0.1 | 0.39 | 0.39 | 3.13 | 25 | 25 | 12.5 | 0.1 | 0.1 | 0.2 | 0.78 | 0.78 | MIC ([8]; Pseudomonas aeruginosa): 1.56 µg/mL; MIC ([9]; Alcaligenes faecalis, 0104002): 1.56 µg/mL; MIC (S. agalactiae 4368): 0.2 µg/mL; MIC (S. faecalis 401): 0.78 µg/mL |
| CCCNCC1CCN(c2c(F)cc3c(=O)c(C(=O)O)cn(C4CC4)c3c2F)C1 (stereo not drawn) [Example 10, 1-Cyclopropyl-6,8-difluoro-1,4-dihydro-4-oxo-7-(3-n-propylaminomethyl-l-pyrrolidinyl)-3-quinolinecarboxylic acid hydrochloride] | 0.0125 | 0.05 | 0.1 | 0.05 | 0.2 | 0.025 | 0.025 | 0.05 | 0.05 | 0.2 | 0.2 | 3.13 | 0.78 | 6.25 | 1.56 | 0.2 | 0.2 | 0.39 | 0.78 | 0.78 | MIC [8, 11]: 1.56 µg/mL; MIC [9, 12]: 0.78 µg/mL; MIC (S. agalactiae 4368): 0.39 µg/mL; MIC (S. faecalis 401): 0.78 µg/mL |
